Test results taken from the supplement of paper PMC10307832.

What was measured:
Assay in all cases: relative viability (nuclei count vs DMSO), 5 days (fraction); higher = more cells survive
Tozasertib + OSI-027 = compound: Cc1cc(Nc2cc(N3CCN(C)CC3)nc(Sc3ccc(NC(=O)C4CC4)cc3)n2)n[nH]1 [Tozasertib] + COc1cccc2cc(-c3nc([C@H]4CC[C@H](C(=O)O)CC4)n4ncnc(N)c34)[nH]c12 [OSI-027] (partner 0.5 µM)
Procedure, shortened: (§1)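 Lung cancer cell lines in 1536-well plates were dosed by pin tool the day after seeding, either with one drug alone or with a fixed anchor-drug dose plus five library-drug doses (not always all listed) in √10 steps. After 5 days, cells were fixed and their nuclei stained in one step (final 0.05% Triton X-100, 1% formaldehyde, 1 ug/ml Hoechst), then counted on 4× images. Relative viability is the nuclei count in treated wells divided by that in vehicle wells. Values are medians of duplicate plates.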

Tozasertib + Pictilisib = compound: Cc1cc(Nc2cc(N3CCN(C)CC3)nc(Sc3ccc(NC(=O)C4CC4)cc3)n2)n[nH]1 [Tozasertib] + CS(=O)(=O)N1CCN(Cc2cc3nc(-c4cccc5[nH]ncc45)nc(N4CCOCC4)c3s2)CC1 [Pictilisib] (partner 1 µM)
Procedure, shortened: as §1

Tozasertib + Dasatinib = compound: Cc1cc(Nc2cc(N3CCN(C)CC3)nc(Sc3ccc(NC(=O)C4CC4)cc3)n2)n[nH]1 [Tozasertib] + Cc1nc(Nc2ncc(C(=O)Nc3c(C)cccc3Cl)s2)cc(N2CCN(CCO)CC2)n1 [Dasatinib] (partner 0.075 µM)
Procedure, shortened: as §1

Tozasertib + Phenformin = compound: Cc1cc(Nc2cc(N3CCN(C)CC3)nc(Sc3ccc(NC(=O)C4CC4)cc3)n2)n[nH]1 [Tozasertib] + N=C(N)NC(=N)NCCc1ccccc1 [Phenformin] (partner 250 µM)
Procedure, shortened: as §1

Tozasertib + Luminespib = compound: Cc1cc(Nc2cc(N3CCN(C)CC3)nc(Sc3ccc(NC(=O)C4CC4)cc3)n2)n[nH]1 [Tozasertib] + CCNC(=O)c1noc(-c2cc(C(C)C)c(O)cc2O)c1-c1ccc(CN2CCOCC2)cc1 [Luminespib] (partner 0.01 µM)
Procedure, shortened: as §1

Row | Cell Line | relative viability (Tozasertib + OSI-027; first compound 0.004 µM) | relative viability (Tozasertib + OSI-027; first compound 0.01265 µM) | relative viability (Tozasertib + OSI-027; first compound 0.04 µM) | relative viability (Tozasertib + OSI-027; first compound 0.1265 µM) | relative viability (Tozasertib + Pictilisib; first compound 0.004 µM) | relative viability (Tozasertib + Pictilisib; first compound 0.01265 µM) | relative viability (Tozasertib + Pictilisib; first compound 0.04 µM) | relative viability (Tozasertib + Pictilisib; first compound 0.1265 µM) | relative viability (Tozasertib + Dasatinib; first compound 0.004 µM) | relative viability (Tozasertib + Dasatinib; first compound 0.01265 µM) | relative viability (Tozasertib + Dasatinib; first compound 0.04 µM) | relative viability (Tozasertib + Dasatinib; first compound 0.1265 µM) | relative viability (Tozasertib + Phenformin; first compound 0.004 µM) | relative viability (Tozasertib + Phenformin; first compound 0.01265 µM) | relative viability (Tozasertib + Phenformin; first compound 0.04 µM) | relative viability (Tozasertib + Phenformin; first compound 0.1265 µM) | relative viability (Tozasertib + Luminespib; first compound 0.004 µM) | relative viability (Tozasertib + Luminespib; first compound 0.01265 µM) | relative viability (Tozasertib + Luminespib; first compound 0.04 µM) | relative viability (Tozasertib + Luminespib; first compound 0.1265 µM)
1 | HCC-366 | 0.991 | 0.862 | 1.01 | 0.575 | 0.106 | 0.135 | 0.122 | 0.0817 | 0.612 | 0.682 | 0.677 | 0.629 | 0.629 | 0.56 | 0.661 | 0.651 | – | – | – | –
2 | HCC-827 | 0.314 | – | 0.789 | 0.582 | 0.872 | 0.999 | 1.14 | 0.918 | 0.299 | 0.282 | 0.352 | 0.345 | 0.384 | 0.403 | 0.484 | 0.406 | 0.281 | 0.854 | 0.714 | 0.766
3 | HOP-62 | 0.902 | 0.844 | 0.941 | 0.793 | 0.741 | 0.605 | 0.926 | 0.565 | 0.676 | 0.615 | 0.672 | 0.668 | 0.732 | 0.578 | 0.616 | 0.617 | 0.953 | 0.876 | 0.912 | 0.976
4 | LC-2-ad | 0.941 | 0.692 | 0.734 | 0.374 | 0.505 | 0.516 | 0.427 | 0.127 | 0.624 | 0.565 | 0.482 | 0.236 | 0.618 | 0.548 | 0.514 | 0.299 | 1.09 | 0.95 | 0.821 | 0.544
5 | LCLC-97TM1 | 0.571 | 0.507 | 0.526 | 0.371 | – | 0.181 | 0.222 | 0.11 | 0.809 | 0.695 | 0.948 | 0.783 | 0.438 | 0.437 | 0.459 | 0.407 | 0.895 | – | 0.724 | 0.615
6 | LCLC-103H | 0.504 | – | 0.503 | 0.388 | 0.694 | 0.568 | 0.634 | 0.498 | 0.539 | 0.452 | 0.456 | 0.478 | 0.373 | 0.343 | 0.323 | 0.359 | 0.935 | 1.05 | 1.08 | 0.72
7 | LK-2 | 0.184 | 0.199 | 0.198 | 0.182 | 0.715 | – | 0.61 | 0.359 | 0.262 | 0.39 | 0.285 | 0.23 | 0.37 | 0.493 | 0.412 | 0.212 | 0.204 | 0.195 | 0.166 | 0.172
8 | LOU-NH91 | – | 0.675 | 0.763 | 0.728 | 0.541 | 0.526 | 0.513 | 0.48 | – | 0.519 | 0.573 | 0.499 | – | 0.672 | 0.797 | 0.559 | – | 0.354 | 0.33 | 0.336
9 | LU99A | 0.307 | 0.278 | 0.269 | 0.269 | 0.338 | 0.339 | 0.3 | 0.216 | 0.751 | 0.513 | 0.547 | 0.373 | 0.903 | 0.819 | 0.773 | 0.646 | 0.225 | 0.249 | 0.27 | 0.218
10 | LXF-289 | 0.695 | 0.731 | 0.779 | 0.441 | 0.835 | 0.828 | 0.778 | 0.789 | 0.226 | 0.198 | 0.232 | 0.0943 | 0.589 | 0.511 | 0.507 | 0.383 | 0.573 | 0.51 | 0.664 | 0.399
11 | NCI-H23 | 0.614 | 0.629 | 0.666 | 0.453 | 0.566 | 0.555 | 0.541 | 0.337 | 0.747 | 0.91 | 0.832 | 0.909 | 0.76 | – | 0.85 | 0.745 | 0.198 | 0.221 | 0.183 | 0.198
12 | NCI-H322M | 0.546 | 0.502 | 0.561 | 0.412 | 0.485 | 0.474 | 0.576 | 0.419 | 0.263 | 0.263 | 0.257 | 0.224 | 0.798 | – | 0.799 | 0.481 | 0.805 | 0.996 | 0.851 | 0.564
13 | NCI-H358 | 0.779 | 0.803 | 0.982 | 0.125 | 0.353 | 0.263 | 0.366 | 0.178 | 0.154 | 0.152 | 0.187 | 0.121 | 0.353 | 0.295 | 0.354 | 0.0988 | 0.265 | 0.394 | 0.382 | 0.234
14 | NCI-H441 | 0.57 | 0.647 | 0.568 | 0.6 | 0.431 | 0.447 | 0.477 | 0.304 | 0.655 | 0.643 | – | 0.474 | 0.955 | 0.852 | 0.937 | 0.768 | 0.361 | 0.323 | 0.312 | 0.261
15 | NCI-H522 | 0.773 | 0.838 | 0.783 | 0.628 | – | – | – | – | 0.836 | 1.12 | 1.01 | 0.725 | 0.687 | 0.62 | 0.676 | 0.593 | 1.36 | 1.48 | 1 | 0.896
16 | NCI-H1703 | – | – | – | – | 0.287 | 0.221 | 0.248 | 0.23 | – | – | – | – | – | – | – | – | – | – | – | –
17 | NCI-H2342 | 0.654 | 0.525 | 0.657 | 0.582 | – | – | – | – | 0.338 | 0.293 | 0.314 | 0.292 | 0.635 | 0.607 | 0.57 | 0.465 | 0.646 | – | 0.697 | 0.767
18 | SW 900 | 0.767 | 0.54 | 0.75 | 0.28 | – | – | – | – | 0.79 | 0.51 | 0.503 | 0.567 | 0.583 | 0.381 | 0.708 | 0.586 | 0.167 | 0.188 | 0.205 | 0.173
